Organism: Rattus norvegicus
Assay: DrugMatrix - Regimen: Daily Repeat
Format: toxicity, organism-based, Sprague-Dawley
Parameters: regimen Daily Repeat, gender Male, age 6-8 weeks
Settings: in vivo, po, route oral GAVAGE, vehicle 100 % WATER; for ABSOLUTE BASOPHIL / ABSOLUTE EOSINOPHIL / ABSOLUTE LYMPHOCYTE / ABSOLUTE MONOCYTE / ABSOLUTE SEGMENTED NEUTROPHIL / BASOPHIL / EOSINOPHIL / ERYTHROCYTE COUNT / HEMATOCRIT / HEMOGLOBIN / LEUKOCYTE COUNT / LYMPHOCYTE / MEAN CORPUSCULAR HEMOGLOBIN / MEAN CORPUSCULAR HEMOGLOBIN CONCENTRATION / MEAN CORPUSCULAR VOLUME / MONOCYTE / NEUTROPHIL / NUCLEATED RED BLOOD CELLS / PLATELET COUNT: tissue Blood; for ALANINE AMINOTRANSFERASE / ALBUMIN / ALKALINE PHOSPHATASE / ASPARTATE AMINOTRANSFERASE / BLOOD UREA NITROGEN / CARBON DIOXIDE / CHLORIDE / CHOLESTEROL / CREATINE PHOSPHOKINASE / CREATININE / GLUCOSE / LACTATE DEHYDROGENASE / LIPASE / PHOSPHORUS / POTASSIUM / SODIUM / TOTAL BILIRUBIN / TOTAL PROTEIN / URIC ACID: tissue Plasma
[1] = 100 mg/kg, 120 h, dose level Low, time 5 day
[2] = 852 mg/kg, 72 h, dose level High, time 3 day
[3] = 852 mg/kg, 120 h, dose level High, time 5 day

SMILES: CC(C)(S)[C@@H](N)C(=O)O [PENICILLAMINE]
- ABSOLUTE BASOPHIL [1]: 0 CELLS/uL
- ABSOLUTE EOSINOPHIL [1]: 0 CELLS/uL
- ABSOLUTE LYMPHOCYTE [1]: 6617.67 CELLS/uL
- ABSOLUTE MONOCYTE [1]: 110.33 CELLS/uL
- ABSOLUTE SEGMENTED NEUTROPHIL [1]: 338.67 CELLS/uL
- BASOPHIL [1]: 0%
- EOSINOPHIL [1]: 0%
- ERYTHROCYTE COUNT [1]: 5.47 x10E6/uL
- HEMATOCRIT [1]: 34.93%
- HEMOGLOBIN [1]: 13.8 G/DL
- LEUKOCYTE COUNT [1]: 7.07 x10E3/uL
- LYMPHOCYTE [1]: 93.33%
- MEAN CORPUSCULAR HEMOGLOBIN [1]: 25.27 pg
- MEAN CORPUSCULAR HEMOGLOBIN CONCENTRATION [1]: 39.57 G/DL
- MEAN CORPUSCULAR VOLUME [1]: 63.93 fL
- MONOCYTE [1]: 1.67%
- NEUTROPHIL [1]: 5%
- NUCLEATED RED BLOOD CELLS [1]: 0 /100WBC
- PLATELET COUNT [1]: 1075.33 x10E3/uL
- ALANINE AMINOTRANSFERASE [1]: 51.33 u/L
- ALBUMIN [1]: 4.07 G/DL
- ALKALINE PHOSPHATASE [1]: 310.33 u/L
- ASPARTATE AMINOTRANSFERASE [1]: 74.33 u/L
- BLOOD UREA NITROGEN [1]: 13.67 mg/dL
- CARBON DIOXIDE [1]: 34 mmol/L
- CHLORIDE [1]: 99.67 MEQ/L
- CHOLESTEROL [1]: 68.67 mg/dL
- CREATINE PHOSPHOKINASE [1]: 197.67 u/L
- CREATININE [1]: 0.13 mg/dL
- GLUCOSE [1]: 152.67 mg/dL
- LACTATE DEHYDROGENASE [1]: 129 u/L
- LIPASE [1]: 9.67 u/L
- PHOSPHORUS [1]: 10.77 mg/dL
- POTASSIUM [1]: 6.13 MEQ/L
- SODIUM [1]: 144.33 MEQ/L
- TOTAL BILIRUBIN [1]: 0.17 mg/dL
- TOTAL PROTEIN [1]: 5.83 G/DL
- URIC ACID [1]: 1.17 mg/dL
- ABSOLUTE BASOPHIL [2]: 0 CELLS/uL
- ABSOLUTE EOSINOPHIL [2]: 0 CELLS/uL
- ABSOLUTE LYMPHOCYTE [2]: 6326 CELLS/uL
- ABSOLUTE MONOCYTE [2]: 89.33 CELLS/uL
- ABSOLUTE SEGMENTED NEUTROPHIL [2]: 351.33 CELLS/uL
- BASOPHIL [2]: 0%
- EOSINOPHIL [2]: 0%
- ERYTHROCYTE COUNT [2]: 5.64 x10E6/uL
- HEMATOCRIT [2]: 34.8%
- HEMOGLOBIN [2]: 13.1 G/DL
- LEUKOCYTE COUNT [2]: 6.77 x10E3/uL
- LYMPHOCYTE [2]: 93.67%
- MEAN CORPUSCULAR HEMOGLOBIN [2]: 23.23 pg
- MEAN CORPUSCULAR HEMOGLOBIN CONCENTRATION [2]: 37.67 G/DL
- MEAN CORPUSCULAR VOLUME [2]: 61.73 fL
- MONOCYTE [2]: 1.33%
- NEUTROPHIL [2]: 5%
- NUCLEATED RED BLOOD CELLS [2]: 0 /100WBC
- PLATELET COUNT [2]: 1143.33 x10E3/uL
- ALANINE AMINOTRANSFERASE [2]: 54.33 u/L
- ALBUMIN [2]: 4.2 G/DL
- ALKALINE PHOSPHATASE [2]: 349 u/L
- ASPARTATE AMINOTRANSFERASE [2]: 71.33 u/L
- BLOOD UREA NITROGEN [2]: 14 mg/dL
- CARBON DIOXIDE [2]: 30.33 mmol/L
- CHLORIDE [2]: 102.67 MEQ/L
- CHOLESTEROL [2]: 88.33 mg/dL
- CREATINE PHOSPHOKINASE [2]: 242 u/L
- CREATININE [2]: 0.12 mg/dL
- GLUCOSE [2]: 145.67 mg/dL
- LACTATE DEHYDROGENASE [2]: 117.67 u/L
- LIPASE [2]: 10 u/L
- PHOSPHORUS [2]: 9.27 mg/dL
- POTASSIUM [2]: 5.88 MEQ/L
- SODIUM [2]: 147.53 MEQ/L
- TOTAL BILIRUBIN [2]: 0.17 mg/dL
- TOTAL PROTEIN [2]: 6.2 G/DL
- URIC ACID [2]: 0.87 mg/dL
- ABSOLUTE BASOPHIL [3]: 0 CELLS/uL
- ABSOLUTE EOSINOPHIL [3]: 0 CELLS/uL
- ABSOLUTE LYMPHOCYTE [3]: 6605.67 CELLS/uL
- ABSOLUTE MONOCYTE [3]: 23.67 CELLS/uL
- ABSOLUTE SEGMENTED NEUTROPHIL [3]: 604 CELLS/uL
- BASOPHIL [3]: 0%
- EOSINOPHIL [3]: 0%
- ERYTHROCYTE COUNT [3]: 5.48 x10E6/uL
- HEMATOCRIT [3]: 33.73%
- HEMOGLOBIN [3]: 13.27 G/DL
- LEUKOCYTE COUNT [3]: 7.23 x10E3/uL
- LYMPHOCYTE [3]: 91.33%
- MEAN CORPUSCULAR HEMOGLOBIN [3]: 24.23 pg
- MEAN CORPUSCULAR HEMOGLOBIN CONCENTRATION [3]: 39.33 G/DL
- MEAN CORPUSCULAR VOLUME [3]: 61.63 fL
- MONOCYTE [3]: 0.33%
- NEUTROPHIL [3]: 8.33%
- NUCLEATED RED BLOOD CELLS [3]: 0 /100WBC
- PLATELET COUNT [3]: 1213.67 x10E3/uL
- ALANINE AMINOTRANSFERASE [3]: 35 u/L
- ALBUMIN [3]: 4.23 G/DL
- ALKALINE PHOSPHATASE [3]: 283.33 u/L
- ASPARTATE AMINOTRANSFERASE [3]: 59.33 u/L
- BLOOD UREA NITROGEN [3]: 13.33 mg/dL
- CARBON DIOXIDE [3]: 33.33 mmol/L
- CHLORIDE [3]: 99.67 MEQ/L
- CHOLESTEROL [3]: 61.33 mg/dL
- CREATINE PHOSPHOKINASE [3]: 202.33 u/L
- CREATININE [3]: 0.12 mg/dL
- GLUCOSE [3]: 131.67 mg/dL
- LACTATE DEHYDROGENASE [3]: 133 u/L
- LIPASE [3]: 9.67 u/L
- PHOSPHORUS [3]: 10.7 mg/dL
- POTASSIUM [3]: 6.12 MEQ/L
- SODIUM [3]: 144.2 MEQ/L
- TOTAL BILIRUBIN [3]: 0.2 mg/dL
- TOTAL PROTEIN [3]: 6.07 G/DL
- URIC ACID [3]: 1.23 mg/dL
